Source: ChEMBL document CHEMBL4152374, “A new phenolic series of indenopyridinone as topoisomerase inhibitors: Design, synthesis, and structure-activity relationships” (Bioorg Med Chem, 2018)
Where a name gives a salt, the structure may show the parent alone.

Tests used:
T47D = test: Antiproliferative activity against human T47D cells after 72 hrs by EZ-CYTOX reagent based assay; format: functional, cell-based
[1] = target: DNA topoisomerase 2-alpha (Homo sapiens) (UniProt P11388); test: Inhibition of human topoisomerase 2-alpha using supercoiled pBR322 plasmid DNA as substrate at 100 uM after 30 mins by agarose gel electrophoresis method relative to etoposide
Sequence of DNA topoisomerase 2-alpha (Homo sapiens) (P11388 whole entry): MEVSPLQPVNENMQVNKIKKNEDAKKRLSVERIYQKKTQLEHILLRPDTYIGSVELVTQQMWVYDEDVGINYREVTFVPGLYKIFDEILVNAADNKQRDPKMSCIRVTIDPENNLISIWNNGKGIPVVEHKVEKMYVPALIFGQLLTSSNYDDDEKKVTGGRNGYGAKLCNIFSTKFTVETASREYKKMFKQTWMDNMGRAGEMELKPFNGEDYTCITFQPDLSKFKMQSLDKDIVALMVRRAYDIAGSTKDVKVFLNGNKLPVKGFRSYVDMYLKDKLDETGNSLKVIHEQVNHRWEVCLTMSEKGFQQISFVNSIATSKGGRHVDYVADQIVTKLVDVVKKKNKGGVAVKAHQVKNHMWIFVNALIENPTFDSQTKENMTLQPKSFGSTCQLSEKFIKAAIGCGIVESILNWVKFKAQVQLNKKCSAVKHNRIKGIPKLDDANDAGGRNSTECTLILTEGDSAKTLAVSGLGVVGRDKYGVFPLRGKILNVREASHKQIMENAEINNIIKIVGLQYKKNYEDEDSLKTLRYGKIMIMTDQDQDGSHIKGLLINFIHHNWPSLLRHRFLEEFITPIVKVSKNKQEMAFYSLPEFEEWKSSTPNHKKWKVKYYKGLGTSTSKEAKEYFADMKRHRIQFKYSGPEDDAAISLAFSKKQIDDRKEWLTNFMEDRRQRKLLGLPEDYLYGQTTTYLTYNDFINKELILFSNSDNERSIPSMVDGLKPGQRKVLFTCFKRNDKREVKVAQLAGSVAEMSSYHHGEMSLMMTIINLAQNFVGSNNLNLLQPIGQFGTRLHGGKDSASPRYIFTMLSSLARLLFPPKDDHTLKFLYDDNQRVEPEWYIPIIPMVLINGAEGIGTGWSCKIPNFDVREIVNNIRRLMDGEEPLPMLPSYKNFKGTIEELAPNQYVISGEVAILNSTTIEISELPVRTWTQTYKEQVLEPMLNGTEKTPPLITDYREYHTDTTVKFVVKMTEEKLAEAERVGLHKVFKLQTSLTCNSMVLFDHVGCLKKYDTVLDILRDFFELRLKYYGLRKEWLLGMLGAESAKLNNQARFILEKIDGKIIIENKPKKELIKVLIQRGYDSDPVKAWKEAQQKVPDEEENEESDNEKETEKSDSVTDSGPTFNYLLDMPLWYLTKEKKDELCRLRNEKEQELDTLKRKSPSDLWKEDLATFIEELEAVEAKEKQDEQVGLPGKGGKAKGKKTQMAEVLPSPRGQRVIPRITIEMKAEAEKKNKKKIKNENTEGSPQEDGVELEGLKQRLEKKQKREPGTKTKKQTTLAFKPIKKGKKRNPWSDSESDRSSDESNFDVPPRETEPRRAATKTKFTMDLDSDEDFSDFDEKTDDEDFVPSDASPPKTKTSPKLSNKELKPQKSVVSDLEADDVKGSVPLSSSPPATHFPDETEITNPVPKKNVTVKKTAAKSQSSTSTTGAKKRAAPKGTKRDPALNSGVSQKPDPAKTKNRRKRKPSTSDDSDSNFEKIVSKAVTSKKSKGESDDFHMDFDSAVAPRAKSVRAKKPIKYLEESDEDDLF

[2] = target: DNA topoisomerase 2-alpha (Homo sapiens) (UniProt P11388); test: Inhibition of human topoisomerase 2-alpha using supercoiled pBR322 plasmid DNA as substrate at 100 uM after 30 mins by agarose gel electrophoresis method relative to control
HeLa = test: Antiproliferative activity against human HeLa cells after 72 hrs by EZ-CYTOX reagent based assay; format: functional, cell-based
[3] = target: T1, DNA topoisomerase 1 (Homo sapiens) (UniProt P11387); test: Inhibition of human topoisomerase 1 using supercoiled pBR322 plasmid DNA as substrate at 100 uM after 30 mins by agarose gel electrophoresis method relative to control
T1 sequence (whole entry): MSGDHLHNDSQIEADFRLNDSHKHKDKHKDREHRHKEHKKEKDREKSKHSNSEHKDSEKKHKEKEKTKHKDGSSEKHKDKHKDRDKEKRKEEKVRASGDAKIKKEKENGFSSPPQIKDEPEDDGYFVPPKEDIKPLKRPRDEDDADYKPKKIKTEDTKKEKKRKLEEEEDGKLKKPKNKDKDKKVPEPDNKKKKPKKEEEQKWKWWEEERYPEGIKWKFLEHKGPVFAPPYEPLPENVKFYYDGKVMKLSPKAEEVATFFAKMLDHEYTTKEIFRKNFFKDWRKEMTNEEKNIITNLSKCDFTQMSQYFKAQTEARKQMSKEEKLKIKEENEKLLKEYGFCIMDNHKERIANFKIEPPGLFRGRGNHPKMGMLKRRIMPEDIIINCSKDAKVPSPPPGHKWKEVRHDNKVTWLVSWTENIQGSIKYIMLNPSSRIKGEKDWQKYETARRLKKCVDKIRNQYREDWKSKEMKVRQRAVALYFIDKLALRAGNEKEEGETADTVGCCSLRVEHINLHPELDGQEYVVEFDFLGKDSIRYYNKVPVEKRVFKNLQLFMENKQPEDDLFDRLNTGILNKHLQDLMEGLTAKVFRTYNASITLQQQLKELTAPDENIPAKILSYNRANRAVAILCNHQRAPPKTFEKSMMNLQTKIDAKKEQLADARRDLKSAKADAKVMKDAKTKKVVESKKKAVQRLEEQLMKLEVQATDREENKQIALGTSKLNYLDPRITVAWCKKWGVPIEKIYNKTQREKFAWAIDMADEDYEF

HCT-15 = test: Antiproliferative activity against human HCT15 cells after 72 hrs by EZ-CYTOX reagent based assay; format: functional, cell-based; conditions: HCT-15, 72 h
[4] = target: T1, DNA topoisomerase 1 (Homo sapiens); test: Inhibition of human topoisomerase 1 using supercoiled pBR322 plasmid DNA as substrate at 20 uM after 30 mins by agarose gel electrophoresis method relative to control
[5] = target: DNA topoisomerase 2-alpha (Homo sapiens) (UniProt P11388); test: Inhibition of human topoisomerase 2-alpha using supercoiled pBR322 plasmid DNA as substrate at 20 uM after 30 mins by agarose gel electrophoresis method relative to control
Calf thymus DNA = test: Inhibition of EtBr binding to calf thymus DNA up to 40 uM by fluorescence spectroscopy; format: nucleic-acid assay; conditions: Bos taurus
[6] = target: DNA topoisomerase 2-alpha (Homo sapiens) (UniProt P11388); test: Inhibition of human topoisomerase 2-alpha using supercoiled pBR322 plasmid DNA as substrate at 20 uM after 30 mins by agarose gel electrophoresis method relative to etoposide

Structure (SMILES)	fold change (FC) [1]	inhibition [2] [%]	inhibition [3] [%]	inhibition [4] [%]	inhibition [5] [%]	inhibition (Calf thymus DNA)	fold change (FC) [6]	IC50 (T47D) [µM]	IC50 (HeLa) [µM]	IC50 (HCT-15) [µM]
CC[C@@]1(O)C(=O)OCc2c1cc1n(c2=O)Cc2cc3ccccc3nc2-1 [CAMPTOTHECIN]									1.37	0.05
COc1cc(NS(C)(=O)=O)ccc1Nc1c2ccccc2nc2ccccc12						Dose-dependent effect				
Oc1cccc(-c2cc(-c3cccc(O)c3)c3c(n2)-c2ccccc2C3O)c1 (configuration not stated)		55.1	20.1		17.8			1.61	6.91	6.2
O=C1c2ccccc2-c2nc(-c3ccccc3O)cc(-c3cccc(O)c3)c21	1.15 to 1.23	86.5	0		12.8		0.26	> 50	4.84	6.09
COc1cccc2c1C(=O)c1c(O)c3c(c(O)c1C2=O)C[C@@](O)(C(=O)CO)C[C@@H]3O[C@H]1C[C@H](N)[C@H](O)[C@H](C)O1 [DOXORUBICIN HYDROCHLORIDE]								0.31	1.5	
OC1c2ccccc2-c2nc(-c3ccccc3)cc(-c3ccccc3)c21 (configuration not stated)		21.5	81	0				> 50	> 50	> 50
O=C1c2ccccc2-c2nc(-c3cccc(O)c3)cc(-c3ccccc3O)c21	0.03	2.6	0					0.11	1.52	1.36
COc1cc([C@@H]2c3cc4c(cc3[C@@H](O[C@@H]3O[C@@H]5CO[C@@H](C)O[C@H]5[C@H](O)[C@H]3O)[C@H]3COC(=O)[C@H]23)OCO4)cc(OC)c1O [ETOPOSIDE]								0.4	9.21	2.94
O=C1c2ccccc2-c2nc(-c3ccccc3O)cc(-c3ccccc3O)c21	0.44	32.8	0		9.9		0.2	> 50	> 50	> 50
Oc1ccc(-c2cc(-c3ccccc3O)c3c(n2)-c2ccccc2C3O)cc1 (configuration not stated)		57.7	11.5		12.1			4.28	10.8	13
O=C1c2ccccc2-c2nc(-c3cccc(O)c3)cc(-c3cccc(O)c3)c21	0.98	68.9	25.7		20.8		0.47	1.24	> 50	> 50
Oc1ccc(-c2cc(-c3cccc(O)c3)c3c(n2)-c2ccccc2C3O)cc1 (configuration not stated)		60.9	71.9	61.7	26.7			1.7	7.08	9.76
Oc1cccc(-c2cc(-c3ccccc3)c3c(n2)-c2ccccc2C3O)c1 (configuration not stated)		40.7	0		0.3			> 50	> 50	> 50

Continued, in another order:

fold change (FC) [1]	inhibition [2] [%]	inhibition [3] [%]	inhibition [4] [%]	inhibition [5] [%]	inhibition (Calf thymus DNA)	fold change (FC) [6]	Structure (SMILES)	IC50 (T47D) [µM]	IC50 (HeLa) [µM]	IC50 (HCT-15) [µM]
0.06	4.9	0					O=C1c2ccccc2-c2nc(-c3ccccc3O)cc(-c3ccccc3)c21	10.5	31.7	> 50
0.07	5.2	0					O=C1c2ccccc2-c2nc(-c3ccccc3O)cc(-c3ccc(O)cc3)c21	> 50	> 50	> 50
	53.6	63.9	0	22.6			Oc1ccc(-c2cc(-c3ccccc3)nc3c2C(O)c2ccccc2-3)cc1 (configuration not stated)	3.25	> 50	> 50
1.04	72.8	60	0	12		0.27	O=C1c2ccccc2-c2nc(-c3ccc(O)cc3)cc(-c3ccccc3O)c21	0.42	2.3	2.82
1.33 to 1.42	100	0		30.5		0.61	O=C1c2ccccc2-c2nc(-c3ccc(O)cc3)cc(-c3ccc(O)cc3)c21	0.37	4.72	1.87
	25	5.8					O=C1c2ccccc2-c2nc(-c3ccccc3)cc(-c3ccccc3)c21	6.5	> 50	> 50
1.02	71.9	75.5	7.5	60.5		1.38	O=C1c2ccccc2-c2nc(-c3ccc(O)cc3)cc(-c3cccc(O)c3)c21	1.49	4.32	1.96
1.33 to 1.42	100	42.6	35.4	93.7	Dose-dependent effect	1.88 to 1.89	O=C1c2ccccc2-c2nc(-c3cccc(O)c3)cc(-c3ccc(O)cc3)c21	1.54	> 50	9.51
0.32	22.5	0.5					O=C1c2ccccc2-c2nc(-c3cccc(O)c3)cc(-c3ccccc3)c21	> 50	> 50	> 50
0.12	9.3	7.4					O=C1c2ccccc2-c2nc(-c3ccccc3)cc(-c3cccc(O)c3)c21	1.18	2.24	2.48
0.31	23.3	0					O=C1c2ccccc2-c2nc(-c3ccc(O)cc3)cc(-c3ccccc3)c21	1.4	2.25	2.18
0.32	23.8	0					O=C1c2ccccc2-c2nc(-c3ccccc3)cc(-c3ccccc3O)c21	1.33	2.58	2.32
0.9	63.3	50	0	15.2		0.35	O=C1c2ccccc2-c2nc(-c3ccccc3)cc(-c3ccc(O)cc3)c21	> 50	> 50	> 50
